Read-outs that look alike come from different tables or passages of the source.
Assays:
HCT116 = assay: cells; format: cell-based, human; conditions: for IC50: read-out: IC50 HCT116
Outline: (§1)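 Cells seeded at 30,000 cells/mL in DMEM with 10% FBS, then exposed for 72 h to compound at six concentrations spanning 0–1000 nM or 0–10000 nM, in duplicate. Final incubation at 37 °C lasted 5 min for L1210 and 15 min for HCT116.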

L1210 = assay: cells; format: cell-based, mouse
Outline: as §1

[1] = vinblastine-sensitive cell lines

SMILES	IC50 (HCT116; Table 4)	IC50 (L1210; Table 4)	IC50 (HCT116; Table 5)	IC50 (L1210; Table 5)	other results
CCC1(NC(=O)c2ccc(C)c(NC(=O)c3ccccc3)c2)CC2CN(CCc3c([nH]c4ccccc34)C(C(=O)OC)(c3cc4c(cc3OC)N(C)C3C(O)(C(=O)OC)C(OC(C)=O)C5(CC)C=CCN6CCC43C65)C2)C1 (stereo not shown) [Compound 107]	–	–	–	–	IC50 (HCT116; Table 2): 7.6 nM; IC50 (L1210; Table 2): 30 nM
CCC1(NC(=O)C=Cc2ccccc2)CC2CN(CCc3c([nH]c4ccccc34)C(C(=O)OC)(c3cc4c(cc3OC)N(C)C3C(O)(C(=O)OC)C(OC(C)=O)C5(CC)C=CCN6CCC43C65)C2)C1 (stereo not shown) [Compound 108]	–	–	–	–	IC50 (HCT116; Table 3): 0.9 nM; IC50 (L1210; Table 3): 0.8 nM
CCC1(NC(=O)C=Cc2ccncc2)CC2CN(CCc3c([nH]c4ccccc34)C(C(=O)OC)(c3cc4c(cc3OC)N(C)C3C(O)(C(=O)OC)C(OC(C)=O)C5(CC)C=CCN6CCC43C65)C2)C1 (stereo not shown) [Compound 109]	–	–	–	–	IC50 (HCT116; Table 3): 0.7 nM; IC50 (L1210; Table 3): 0.6 nM
CCC1(NC(=O)C=Cc2cccnc2)CC2CN(CCc3c([nH]c4ccccc34)C(C(=O)OC)(c3cc4c(cc3OC)N(C)C3C(O)(C(=O)OC)C(OC(C)=O)C5(CC)C=CCN6CCC43C65)C2)C1 (stereo not shown) [Compound 110]	–	–	–	–	IC50 (HCT116; Table 3): 5.7 nM; IC50 (L1210; Table 3): 5.9 nM
CC[C@]1(NC(=O)/C=C/c2ccccn2)C[C@H]2CN(CCc3c([nH]c4ccccc34)[C@@](C(=O)OC)(c3cc4c(cc3OC)N(C)[C@H]3[C@@](O)(C(=O)OC)[C@H](OC(C)=O)[C@]5(CC)C=CCN6CC[C@]43[C@@H]65)C2)C1 [Compound 111]	–	–	–	–	IC50 (HCT116; Table 3): 0.7 nM; IC50 (L1210; Table 3): 0.7 nM
CC[C@]1(NC(=O)/C=C/c2ccoc2)C[C@H]2CN(CCc3c([nH]c4ccccc34)[C@@](C(=O)OC)(c3cc4c(cc3OC)N(C)[C@H]3[C@@](O)(C(=O)OC)[C@H](OC(C)=O)[C@]5(CC)C=CCN6CC[C@]43[C@@H]65)C2)C1 [Compound 112]	–	–	–	–	IC50 (HCT116; Table 3): 0.7 nM; IC50 (L1210; Table 3): 0.7 nM
CC[C@]1(NC(=O)/C=C/c2ccco2)C[C@H]2CN(CCc3c([nH]c4ccccc34)[C@@](C(=O)OC)(c3cc4c(cc3OC)N(C)[C@H]3[C@@](O)(C(=O)OC)[C@H](OC(C)=O)[C@]5(CC)C=CCN6CC[C@]43[C@@H]65)C2)C1 [Compound 113]	–	–	–	–	IC50 (HCT116; Table 3): 1.3 nM; IC50 (L1210; Table 3): 1.3 nM
CC[C@]1(NC(=O)/C=C/c2ccsc2)C[C@H]2CN(CCc3c([nH]c4ccccc34)[C@@](C(=O)OC)(c3cc4c(cc3OC)N(C)[C@H]3[C@@](O)(C(=O)OC)[C@H](OC(C)=O)[C@]5(CC)C=CCN6CC[C@]43[C@@H]65)C2)C1 [Compound 114]	–	–	–	–	IC50 (HCT116; Table 3): 0.6 nM; IC50 (L1210; Table 3): 0.5 nM
CCC1(NC(=O)c2cccc3ccccc23)CC2CN(CCc3c([nH]c4ccccc34)C(C(=O)OC)(c3cc4c(cc3OC)N(C)C3C(O)(C(=O)OC)C(OC(C)=O)C5(CC)C=CCN6CCC43C65)C2)C1 (stereo not shown) [Compound 115]	65 nM	60 nM	–	–	potency relative to vinblastine (less potent / reduced activity) (HCT116; [1]): roughly 10 fold
CCC1(NC(=O)c2ccc3ccccc3c2)CC2CN(CCc3c([nH]c4ccccc34)C(C(=O)OC)(c3cc4c(cc3OC)N(C)C3C(O)(C(=O)OC)C(OC(C)=O)C5(CC)C=CCN6CCC43C65)C2)C1 (stereo not shown) [Compound 116]	2.3 nM	1.9 nM	–	–	potency relative to vinblastine (more potent) (HCT116; [1]): approximately 3 fold
CCC1(NC(=O)c2ccc3cc(N)ccc3c2)CC2CN(CCc3c([nH]c4ccccc34)C(C(=O)OC)(c3cc4c(cc3OC)N(C)C3C(O)(C(=O)OC)C(OC(C)=O)C5(CC)C=CCN6CCC43C65)C2)C1 (stereo not shown) [Compound 117]	0.8 nM	0.7 nM	–	–	–
CCC1(NC(=O)c2ccc3cc(NC(=O)OC(C)(C)C)ccc3c2)CC2CN(CCc3c([nH]c4ccccc34)C(C(=O)OC)(c3cc4c(cc3OC)N(C)C3C(O)(C(=O)OC)C(OC(C)=O)C5(CC)C=CCN6CCC43C65)C2)C1 (stereo not shown) [Compound 118]	6.5 nM	5 nM	–	–	–
CCC1(NC(=O)c2ccc3cc(OC)ccc3c2)CC2CN(CCc3c([nH]c4ccccc34)C(C(=O)OC)(c3cc4c(cc3OC)N(C)C3C(O)(C(=O)OC)C(OC(C)=O)C5(CC)C=CCN6CCC43C65)C2)C1 (stereo not shown) [Compound 119]	3.5 nM	2.5 nM	–	–	–
CCC1(NC(=O)c2ccc3cccc(OC)c3c2)CC2CN(CCc3c([nH]c4ccccc34)C(C(=O)OC)(c3cc4c(cc3OC)N(C)C3C(O)(C(=O)OC)C(OC(C)=O)C5(CC)C=CCN6CCC43C65)C2)C1 (stereo not shown) [Compound 120]	13 nM	10 nM	–	–	–
CCC1(NC(=O)c2ccc3c(c2)C(C)(C)CCC3(C)C)CC2CN(CCc3c([nH]c4ccccc34)C(C(=O)OC)(c3cc4c(cc3OC)N(C)C3C(O)(C(=O)OC)C(OC(C)=O)C5(CC)C=CCN6CCC43C65)C2)C1 (stereo not shown) [Compound 123]	7.8 nM	7.4 nM	–	–	–
CCC1(NC(=O)c2ccc3c(c2)CCC3)CC2CN(CCc3c([nH]c4ccccc34)C(C(=O)OC)(c3cc4c(cc3OC)N(C)C3C(O)(C(=O)OC)C(OC(C)=O)C5(CC)C=CCN6CCC43C65)C2)C1 (stereo not shown) [Compound 124]	5.6 nM	5 nM	–	–	potency relative to vinblastine (more potent) (HCT116; [1]): about 2 fold
CCC1(NC(=O)C2Cc3ccccc3C2)CC2CN(CCc3c([nH]c4ccccc34)C(C(=O)OC)(c3cc4c(cc3OC)N(C)C3C(O)(C(=O)OC)C(OC(C)=O)C5(CC)C=CCN6CCC43C65)C2)C1 (stereo not shown) [Compound 125]	15 nM	30 nM	–	–	–

SMILES	IC50 (HCT116; Table 4)	IC50 (L1210; Table 4)	IC50 (HCT116; Table 5)	IC50 (L1210; Table 5)	other results
CCC1(NC(=O)c2ccc3c(c2)CCCCC3)CC2CN(CCc3c([nH]c4ccccc34)C(C(=O)OC)(c3cc4c(cc3OC)N(C)C3C(O)(C(=O)OC)C(OC(C)=O)C5(CC)C=CCN6CCC43C65)C2)C1 (stereo not shown) [Compound 126]	4.8 nM	6.1 nM	–	–	–
CC[C@]1(NC(=O)c2ccc3cc4ccccc4cc3c2)C[C@H]2CN(CCc3c([nH]c4ccccc34)[C@@](C(=O)OC)(c3cc4c(cc3OC)N(C)[C@H]3[C@@](O)(C(=O)OC)[C@H](OC(C)=O)[C@]5(CC)C=CCN6CC[C@]43[C@@H]65)C2)C1 [Compound 127]	60 nM	40 nM	–	–	–
CCC1(NC(=O)c2ccncc2)CC2CN(CCc3c([nH]c4ccccc34)C(C(=O)OC)(c3cc4c(cc3OC)N(C)C3C(O)(C(=O)OC)C(OC(C)=O)C5(CC)C=CCN6CCC43C65)C2)C1 (stereo not shown) [Compound 128]	–	–	0.4 nM	0.4 nM	–
CCC1(NC(=O)c2cccnc2)CC2CN(CCc3c([nH]c4ccccc34)C(C(=O)OC)(c3cc4c(cc3OC)N(C)C3C(O)(C(=O)OC)C(OC(C)=O)C5(CC)C=CCN6CCC43C65)C2)C1 (stereo not shown) [Compound 129]	–	–	0.6 nM	0.7 nM	–
CCC1(NC(=O)c2ccccn2)CC2CN(CCc3c([nH]c4ccccc34)C(C(=O)OC)(c3cc4c(cc3OC)N(C)C3C(O)(C(=O)OC)C(OC(C)=O)C5(CC)C=CCN6CCC43C65)C2)C1 (stereo not shown) [Compound 130]	–	–	50 nM	55 nM	–
CC[C@]1(NC(=O)c2cnccn2)C[C@H]2CN(CCc3c([nH]c4ccccc34)[C@@](C(=O)OC)(c3cc4c(cc3OC)N(C)[C@H]3[C@@](O)(C(=O)OC)[C@H](OC(C)=O)[C@]5(CC)C=CCN6CC[C@]43[C@@H]65)C2)C1 [Compound 131]	–	–	20 nM	40 nM	–
CC[C@]1(NC(=O)c2ccnnc2)C[C@H]2CN(CCc3c([nH]c4ccccc34)[C@@](C(=O)OC)(c3cc4c(cc3OC)N(C)[C@H]3[C@@](O)(C(=O)OC)[C@H](OC(C)=O)[C@]5(CC)C=CCN6CC[C@]43[C@@H]65)C2)C1 [Compound 132]	–	–	9 nM	30 nM	–
CC[C@]1(NC(=O)c2ccoc2)C[C@H]2CN(CCc3c([nH]c4ccccc34)[C@@](C(=O)OC)(c3cc4c(cc3OC)N(C)[C@H]3[C@@](O)(C(=O)OC)[C@H](OC(C)=O)[C@]5(CC)C=CCN6CC[C@]43[C@@H]65)C2)C1 [Compound 133]	–	–	0.6 nM	0.7 nM	activity relative to 20′ benzamide Compound 24 (better) (HCT116): roughly 2 fold; potency relative to vinblastine (more potent) (HCT116; [1]): 10 fold
CCC1(NC(=O)c2ccco2)CC2CN(CCc3c([nH]c4ccccc34)C(C(=O)OC)(c3cc4c(cc3OC)N(C)C3C(O)(C(=O)OC)C(OC(C)=O)C5(CC)C=CCN6CCC43C65)C2)C1 (stereo not shown) [Compound 134]	–	–	0.7 nM	0.7 nM	–
CCC1(NC(=O)c2ccsc2)CC2CN(CCc3c([nH]c4ccccc34)C(C(=O)OC)(c3cc4c(cc3OC)N(C)C3C(O)(C(=O)OC)C(OC(C)=O)C5(CC)C=CCN6CCC43C65)C2)C1 (stereo not shown) [Compound 135]	–	–	0.7 nM	0.5 nM	–
CCC1(NC(=O)c2cccs2)CC2CN(CCc3c([nH]c4ccccc34)C(C(=O)OC)(c3cc4c(cc3OC)N(C)C3C(O)(C(=O)OC)C(OC(C)=O)C5(CC)C=CCN6CCC43C65)C2)C1 (stereo not shown) [Compound 136]	–	–	0.6 nM	0.6 nM	activity relative to 20′ benzamide Compound 24 (better) (HCT116): roughly 2 fold; potency relative to vinblastine (more potent) (HCT116; [1]): 10 fold
CC[C@]1(NC(=O)c2cocn2)C[C@H]2CN(CCc3c([nH]c4ccccc34)[C@@](C(=O)OC)(c3cc4c(cc3OC)N(C)[C@H]3[C@@](O)(C(=O)OC)[C@H](OC(C)=O)[C@]5(CC)C=CCN6CC[C@]43[C@@H]65)C2)C1 [Compound 137]	–	–	4 nM	4.5 nM	–
CC[C@]1(NC(=O)c2cnco2)C[C@H]2CN(CCc3c([nH]c4ccccc34)[C@@](C(=O)OC)(c3cc4c(cc3OC)N(C)[C@H]3[C@@](O)(C(=O)OC)[C@H](OC(C)=O)[C@]5(CC)C=CCN6CC[C@]43[C@@H]65)C2)C1 [Compound 138]	–	–	3.5 nM	3.9 nM	–
CC[C@]1(NC(=O)c2cscn2)C[C@H]2CN(CCc3c([nH]c4ccccc34)[C@@](C(=O)OC)(c3cc4c(cc3OC)N(C)[C@H]3[C@@](O)(C(=O)OC)[C@H](OC(C)=O)[C@]5(CC)C=CCN6CC[C@]43[C@@H]65)C2)C1 [Compound 139]	–	–	6.3 nM	5.6 nM	–
CCC1(NC(=O)c2cncs2)CC2CN(CCc3c([nH]c4ccccc34)C(C(=O)OC)(c3cc4c(cc3OC)N(C)C3C(O)(C(=O)OC)C(OC(C)=O)C5(CC)C=CCN6CCC43C65)C2)C1 (stereo not shown) [Compound 140]	–	–	0.6 nM	1.8 nM	–
CCC1(NC(=O)c2cncn2C)CC2CN(CCc3c([nH]c4ccccc34)C(C(=O)OC)(c3cc4c(cc3OC)N(C)C3C(O)(C(=O)OC)C(OC(C)=O)C5(CC)C=CCN6CCC43C65)C2)C1 (stereo not shown) [Compound 141]	–	–	2.2 nM	4 nM	–

— US10689381B2 (priority 2017, dated 2020)
